Like-named read-outs stand apart in the source and are kept apart here. *1 amine or outer side, *2 acyl side, *3 side chain or, on linkers, in order; H or OH if unused. Where a SMILES comes first, the peptide text is derived from it. Where no end group is shown, it is not given here. [ ]: non-standard residue; d: D form. The star is where a group is joined. CH2(1-naphthyl) = c1ccc2c(C*)cccc2c1; oXylylene = c1ccc(C[*:2])c(C[*:1])c1; Hyp = O=C(O)[C@@H]1C[C@@H](O)CN1; Chg = N[C@H](C(=O)O)C1CCCCC1; Tle = CC(C)(C)[C@H](N)C(=O)O; Nva = CCC[C@H](N)C(=O)O; Abu = CC[C@H](N)C(=O)O; Ac3c = NC1(C(=O)O)CC1; Meb = Cc1ccc(C*)cc1
Experiments:
[1] = target: T1, recombinant HCV NS3 protease type 1b (Hepatitis C virus genotype 1b, UniProt P26663); assay: Recombinant HCV NS3 protease radiometric assay; type: biochemical, HCV genotype 1b
T1 construct: recombinant HCV NS3 protease (amino acid 1027 to 1206) was cloned in the pET11d bacterial expression vector; made in house; host or cells: E. coli BL21(DE3)pLysS
T1 sequence (P26663 1027-1206): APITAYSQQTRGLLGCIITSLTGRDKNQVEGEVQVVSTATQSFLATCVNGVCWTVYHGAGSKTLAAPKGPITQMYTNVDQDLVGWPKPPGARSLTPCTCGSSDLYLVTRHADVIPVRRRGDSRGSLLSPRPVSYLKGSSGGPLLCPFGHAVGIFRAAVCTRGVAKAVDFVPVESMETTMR
Source text: Cloning, Expression and Purification of the Recombinant HCV NS3 Protease type 1b.
Serum from an HCV-infected patient was obtained through an external collaboration (Bernard Willems MD, Hôpital St-Luc. Montréal. Canada and Dr. Donald Murphy, Laboratoire de Santé Publique du Québec, Ste-Anne de Bellevue, Canada). An engineered full-length cDNA template of the HCV genome was constructed from DNA fragments obtained by reverse transcription-PCR (RT-PCR) of serum RNA and using specific primers selected on the basis of homology between other genotype 1b strains. From the determination of the entire genomic sequence, a genotype 1b was assigned to the HCV isolate according to the classification of Simmonds et al. (J. Clin. Microbiol., (1993), 31, p.1493-1503). […] A DNA fragment encoding the polyprotein precursor (NS3/NS4A/NS4B/NS5A/NS5B) was generated by PCR and introduced into eukaryotic expression vectors. […] The mature NS3 protein was not observed with expression of a polyprotein precursor containing the mutation S1165A, which inactivates the NS3 protease, confirming the functionality of the HCV NS3 protease.
The DNA fragment encoding the recombinant HCV NS3 protease (amino acid 1027 to 1206) was cloned in the pET11d bacterial expression vector. The NS3 protease expression in E. coli BL21(DE3)pLysS was induced by incubation with 1 mM IPTG for 3 h at 22° C. A typical fermentation (18 L) yielded approximately 100 g of wet cell paste. The cells were resuspended in lysis buffer (3.0 mL/g) consisting of 25 mM sodium phosphate, pH 7.5, 10% glycerol (v/v), 1 mM EDTA, 0.01% NP-40 and stored at −80° C. Cells were thawed and homogenized following the addition of 5 mM DTT. Magnesium chloride and DNase were then added to the homogenate at final concentrations of 20 mM and 20 μg/mL respectively. After a 25 min incubation at 4° C., the homogenate was sonicated and centrifuged at 15000×g for 30 min at 4° C. The pH of the supernatant was then adjusted to 6.5 using a 1 M sodium phosphate solution.
An additional gel filtration chromatography step was added to the 2 step purification procedure described in WO 95/22985 (incorporated herein by reference). Briefly, the supernatant from the bacterial extract was loaded on a SP HiTrap column (Pharmacia) previously equilibrated at a flow rate of 2 mL/min in buffer A (50 mM sodium phosphate. pH 6.5, […], 1 mM EDTA, 5 mM DTT, 0.01% NP-40). The column was then washed with buffer A containing 0.15 M NaCl and the protease eluted by applying 10 column volumes of a linear 0.15 to 0.3 M NaCl gradient. NS3 protease-containing fractions were pooled and diluted to a final NaCl concentration of 0.1 M. The enzyme was further purified on a HiTrap Heparin column (Pharmacia) equilibrated in buffer B (25 mM sodium phosphate, pH 7.5, 10% glycerol, 5 mM DTT, 0.01% NP-40). The sample was loaded at a flow rate of 3 mL/min. The column was then washed with buffer B containing 0.15 M NaCl at a flow rate of 1.5 mL/min. Two step washes were performed in the presence of buffer B containing 0.3 or 1 M NaCl. The protease was recovered in the 0.3M NaCl wash, diluted 3-fold with buffer B, reapplied on the HiTrap Heparin column and eluted with buffer B containing 0.4 M NaCl. Finally, the NS3 protease-containing fractions were applied on a Superdex 75 HiLoad 16/60 column (Pharmacia) equilibrated in buffer B containing 0.3 M NaCl. The purity of the HCV NS3 protease obtained from the pooled tractions was judged to be greater than 95% by SDS-PAGE followed by densitometry analysis.
The enzyme was stored at −80° C. and was thawed on ice and diluted just prior to use.
Recombinant HCV NS3 Protease Radiometric Assay
The substrate used for the HCV NS3 protease radiometric assay, DDIVPC-SMSYTW [SEQ. ID NO. 2], is cleaved between the cysteine and the serine residues by the enzyme. The sequence DDIVPC-SMSYTW [SEQ. ID NO. 2] corresponds to the NS5A/NS5B natural cleavage site in which the cysteine residue in P2 has been substituted for a proline. […]

human leukocyte elastase = target: T2, human leukocyte elastase (Homo sapiens, UniProt P08246); assay: Specificity assay: human leukocyte elastase; type: biochemical
T2 sequence (P08246 30-267): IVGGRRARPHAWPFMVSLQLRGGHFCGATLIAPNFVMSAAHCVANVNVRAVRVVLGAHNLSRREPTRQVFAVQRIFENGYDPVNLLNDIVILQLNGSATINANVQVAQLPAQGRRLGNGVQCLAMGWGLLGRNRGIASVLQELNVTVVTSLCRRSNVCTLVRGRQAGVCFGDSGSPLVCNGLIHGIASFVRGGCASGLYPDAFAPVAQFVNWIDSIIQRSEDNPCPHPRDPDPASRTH
Procedure: The final conditions for each assay were as follows:
[100 μM Succ-AAPF-pNA [SEQ. ID NO.
The percentage of inhibition was calculated using the formula:
[1-((UVinn-UVblank)/(UVctl-UVblank))]×100

[2] = target: T3, HCV NS3 protease type 1b/NS4A cofactor peptide (Hepatitis C virus genotype 1b, UniProt P26663); assay: Recombinant HCV NS3 protease/NS4A cofactor peptide radiometric assay; type: biochemical, HCV genotype 1b
T3 construct: recombinant HCV NS3 protease (amino acid 1027 to 1206) was cloned in the pET11d bacterial expression vector; made in house; host or cells: E. coli BL21(DE3)pLysS
T3 sequence (P26663 1027-1206, other chains not shown): as the sequence (P26663 1027-1206) above
Procedure: Recombinant HCV NS3 Protease/NS4A Cofactor Peptide Radiometric Assay.
The enzyme was stored at −80° C., thawed on ice and diluted just prior to use in the assay buffer containing the NS4A cofactor peptide.
The substrate used for the NS3 protease/NS4A cofactor peptide radiometric assay, DDIVPC-SMSYTW [SEQ. ID NO. 2], is cleaved between the cysteine and the serine residues by the enzyme. The sequence DDIVPC-SMSYTW [SEQ. ID NO. 2] corresponds to the NS5A/NS5B natural cleavage site in which the cysteine residue in P2 has been substituted for a proline. The peptide substrate DDIVPC-SMSYTW [SEQ. ID NO. […] ID NO. […] [SEQ. ID NO. 5] (molar ratio enzyme: cofactor 1:100) in the absence or presence of inhibitors. The separation of substrate from products is performed by adding avidin-coated agarose beads to the assay mixture followed by filtration. […] ID NO. 4] product found in the filtrate allows for the calculation of the percentage of substrate conversion and of the percentage of inhibition.
Tris and Tris-HCl (UltraPure) were obtained from Gibco-BRL. Glycerol (UltraPure), MES and BSA were purchased from Sigma. TCEP was obtained from Pierce, DMSO from Aldrich and NaOH from Anachemia.
Assay buffer: 50 mM Tris HCl, pH 7.5, 30% (w/v) glycerol, 1 mg/mL BSA, 1 mM TCEP (TCEP added just prior to use from a 1 M stock solution in water).
Substrate: […] [SEQ. ID NO.
ID NO. 3] (˜1 nM final concentration).
The assay was performed in a 96-well polypropylene plate from Costar. Each well contained:
20 μL substrate/tracer in assay buffer;
10 μL±inhibitor in 20% DMSO/assay buffer;
10 μL NS3 protease 1b/NS4 cofactor peptide (molar ratio 1:100).
Blank (no inhibitor and no enzyme) and control (no inhibitor) were also prepared on the same assay plate.
The enzymatic reaction was initiated by the addition of the enzyme/NS4A peptide solution and the assay mixture was incubated for 40 min at 23° C. under gentle agitation. Ten (10) μL of 0.5N NaOH were added and 10 μL 1 M MES, pH 5.8 were added to quench the enzymatic reaction.
Twenty (20) μL of avidin-coated agarose beads (purchased from Pierce) were added in a Millipore MADP N65 filtration plate. The quenched assay mixture was transferred to the filtration plate, and incubated for 60 min at 23° C. under gentle agitation.
The plates were filtered using a Millipore MultiScreen Vacuum Manifold Filtration apparatus, and 40 μL of the filtrate was transferred in an opaque 96-well plate containing 60 μL of scintillation fluid per well.
The % inhibition was calculated with the following equation:
100-[(countsinh-countsblank)/(countsctl-countsblank)×100]

CC[C@H](C)[C@H](NC(=O)[C@H](CC(=O)O)NC(=O)[C@H](CC(=O)O)NC(C)=O)C(=O)N[C@H](C(=O)N1CCC[C@H]1C(=O)N[C@@H](CS)C(=O)O)C1CCCCC1 [compound 114] (Ac-DDI[Chg]PC-OH; C-terminus assumed)
IC50 [1]: 50 µM

CC(=O)N[C@H](C(=O)N[C@H](C(=O)N1C[C@H](OCc2cccc3ccccc23)C[C@H]1C(=O)NC1(C(=O)O)CC1)C(C)C)C1CCCCC1 [compound 227] (Ac-[Chg]V[Hyp](CH2(1-naphthyl))[Ac3c]-OH)
IC50 (human leukocyte elastase): > 600 µM | IC50 ([2]; Table 2, unmarked values: NS3 protease/NS4A cofactor peptide radiometric assay, read-out: IC50): 3 µM

CC(=O)N[C@H](C(=O)N[C@H](C(=O)N1C[C@H](Oc2ccc(Br)cc2)C[C@H]1C(=O)NC1(C(=O)O)CC1)C(C)C)C1CCCCC1 [compound 238]
IC50 (human leukocyte elastase; Table 2, human leukocyte elastase, read-out: HLE): 195 µM | IC50 ([2]; IC50, Table 2, unmarked values: NS3 protease/NS4A cofactor peptide radiometric assay): 27 µM

CCC[C@H](NC(=O)[C@@H]1CCCN1C(=O)[C@@H](NC(=O)[C@@H](NC(=O)[C@@H](NC(=O)[C@H](CC(=O)O)NC(C)=O)C(C)(C)C)[C@@H](C)CC)C(C)C)C(=O)O [compound 129] (Ac-D[Tle]IVP[Nva]-OH; C-terminus assumed)
IC50 [1]: 270 µM

CCC[C@H](NC(=O)[C@@H]1C[C@@H](OCc2ccccc2C)CN1C(=O)[C@@H](NC(=O)[C@@H](NC(=O)[C@H](CC(=O)O)NC(=O)[C@H](CC(=O)O)NC(C)=O)[C@@H](C)CC)C(C)C)C(=O)O [compound 204] (Ac-DDIV[Hyp](oXylylene)[Nva]-OH; C-terminus assumed)
IC50 [1]: 9.4 µM

CCC[C@H](NC(=O)[C@@H]1C[C@@H](OCc2ccc(C)cc2)CN1C(=O)[C@@H](NC(=O)[C@@H](NC(=O)[C@H](CC(=O)O)NC(=O)[C@H](CC(=O)O)NC(C)=O)[C@@H](C)CC)C(C)C)C(=O)O [compound 206] (Ac-DDIV[Hyp](Meb)[Nva]-OH)
IC50 [1]: 6.4 µM

Ac-DDIVLC [compound 116]
IC50 [1]: 16 µM

Ac-DDIVFC [compound 117]
IC50 [1]: 25 µM

Ac-DDIIPC [compound 113]
IC50 [1]: 56 µM

Ac-DDLVPC [compound 112]
IC50 [1]: 92 µM

CC[C@H](NC(=O)[C@@H](NC(=O)[C@@H](NC(=O)[C@H](CC(=O)O)NC(=O)[C@H](CC(=O)O)NC(C)=O)[C@@H](C)CC)C(C)C)C(=O)N[C@@H](CS)C(=O)O [compound 115] (Ac-DDIV[Abu]C-OH; C-terminus assumed)
IC50 [1]: 58 µM
